What was measured:
[1] = system: secreted Aβ1-42; assay: Aβ1-42 secretion by APP-transfected neuroblastoma cells (ELISA); type: cell-based; details: Homo sapiens, Neuroblastoma cell; SKNSH-SYSY APPWT cells; concentration decreasing secreted Aβ1-42 to 50% of basal amount
Description: (§1) Cell Cultures and Transfections to Test Activity on Aβ1-40 and Aβ1-42 Secretion
(§2) Human neuroblastoma cell line SKNSH-SYSY (ATCC® Catalog No. CRL-2266™), HEK (ATCC® CRL-1573™) and COS-1 (ATCC® CRL-1650™) cells were maintained in Dulbecco's modified Eagle medium (DMEM, GIBCO BRL) supplemented with 10% fetal calf serum, 2 mM L-glutamine, 1 mM non-essential amino acids, 50 units/ml penicillin/streptomycin (Invitrogen, France) in a 5% CO2 humidified incubator at 37° C. APP695 cDNA was subcloned into eukaryotic expression vector pcDNA3 (Invitrogen), allowing for a G418 (Invitrogen) selection of clones. This APP cDNA coding for the 695 amino acid long isoform was transfected into SKNSH-SYSY cells using the ethyleneimine polymer ExGen 500 (Euromedex) according to the manufacturer's instructions. The cells expressing APP (SKNSH-SYSY APP^WT) were selected by the addition of 200 μg/ml G418 in the cell medium. To quantify AR which released in the cell culture medium, the collected medium was spun at 200×g to eliminate the cell debris. The concentrations of secreted Aâ1-40 and Aβ1-42 were determined using the Human Aβ (1-40) Assay Kit (IBL) or the INNOTEST™ beta-Amyloid (1-42) ELISA Kit (Innogenetics), according to manufacturer's instructions. The results were expressed as IC50, i.e. the concentration able to decrease to 50% the basal amount of secreted Aβ peptide 1-40 and 1-42.

[2] = system: AICD; assay: Quantification of AICD by Western blot in SY5Y-APPWT cells; type: cell-based, Human; details: compared to a control with a value of 100
Description: (§3) Quantifications of APP-CTFs and AICD
(§4) After treatment, SY5Y-APP^WT cells were scrapped and lysed in 1× Lysis Buffer (250 mM NaCl, 50 mM Tris, pH 8.8, 5 mM EDTA, 2.5% Triton X-100, 1% Deoxycholate, 0.1% SDS). For the Western blotting, an equal amount of total proteins (20 μg/lane) was loaded on a 16.5% Tris-Tricine or 8-16% Tris-Glycine polyacrylamide gel.
(§5) SDS-polyacrylamide gel electrophoresis (PAGE) was performed using the Criterion™ Tris-Tricine-precast or Bis-Tris-precast criterion gels (Bio-Rad Bioresearch division). Proteins were transferred to a […] nitrocellulose membrane (Hybond, Amersham Biosciences) at 2.5 mA/cm2 per gel using the Criterion™ Blotter system (Amersham Biosciences), according to the manufacturer's instructions. Proteins were reversibly stained with Ponceau Red in order to check the quality of the transfer of protein. The membranes were blocked in 25 mM Tris-HCl pH 8.0, 150 mM NaCl, 0.1% Tween-20 (v/v) and 5% (w/v) of skimmed milk for 30 min. Membranes were incubated overnight at 4° C. with appropriate dilution of the primary antibodies, and were incubated for 1 h at room temperature with secondary antibody. […] Quantifications were calculated with Image J software (NIH) and the data were collected using Excel Software (Microsoft). The loading variations between Western blot lanes were normalized according to the tubulin signal. Quantification of CTFα and AICD were compared to control conditions (considered as 100 in arbitrary units) and are presented for two concentrations of the drug: 1 and 10 μM.

[3] = system: secreted Aβ1-40; assay: Aβ1-40 secretion by APP-transfected neuroblastoma cells (ELISA); type: cell-based; details: Homo sapiens, Neuroblastoma cell; SKNSH-SYSY APPWT cells; concentration decreasing secreted Aβ1-40 to 50% of basal amount
Description: as §1, §2

[4] = Cytotoxicity evaluation (MTS assay); type: cell-based, Human; details: human, SY5Y-APPWT neuroblastoma cells (expressing APP); SY5Y-APPWT cells, 24 h treatment, MTS
Description: Human neuroblastoma cell line SY5Y-APP^WT was used to assess the cytotoxic effects of each compound. SY5Y-APP^WT cells were seeded at 20000 cells/well onto 96-well plates and were cultured in Dulbecco's modified Eagle medium (DMEM, Invitrogen) supplemented with 10% fetal calf serum (PAA), 2 mM L-glutamine (Invitrogen), 1 mM non-essential amino acids (Invitrogen), 50 units/ml penicillin/streptomycin (Invitrogen), and 200 μg G418=geneticin (Invitrogen) (selection for cells expressing APP) in a 5% CO2 humidified incubator at 37° C. After 24 h, the cells were washed and incubated with the compound at 0.1; 0.3; 1; 3; 10; 30 and 100 μM or with DMSO as control diluted in the same culture medium at 37° C. in 5% CO2. After 24 h of treatment, cytotoxicity was determined by using colorimetric MTS assay (CellTiter 96® Aqueous One Solution Cell Proliferation Assay-MTS Promega) according to the protocol of the manufacturer. Absorbance was read at 490 nm and results were expressed as % from control condition considered as 100%.

[5] = system: CTFα; assay: Quantification of APP-CTFα by Western blot in SY5Y-APPWT cells; type: cell-based, Human; details: compared to a control with a value of 100
Description: as §3, §4, §5

Row | IC50 [1] [µM] | IC50 [3] [µM] | SMILES | AICD (10 μM) [2] [arbitrary units] | CC50 at 24 h [4] [µM] | CTFα (10 μM) [5] [arbitrary units]
1 | 2.1 | 1.2 | CC(C)CN(CCCN1CCN(CCCN2CCc3[nH]c4ccccc4c3C2)CC1)CC(C)C [Compound 3.1a, N,N-diisobutyl-3-[4-(3-(1,3,4,5-tetrahydro-1H-pyrido[4,3-b]indol-2-yl)propyl)piperazin-1-yl]propylamine] | 1081 |  | 
2 |  |  | COc1ccc2[nH]c3c(c2c1)CN(CCCN1CCN(CCCN(CC(C)C)CC(C)C)CC1)CC3 [Compound 3.1b, N,N-diisobutyl-3-(4-(3-(8-methoxy-1,3,4,5-tetrahydro-1H-pyrido[4,3-b]indol-2-yl)propyl)piperazin-1-yl)propylamine] | 16400 | > 10 | 
3 | 10 | 1 | Cc1ccc2[nH]c3c(c2c1)CN(CCCN1CCN(CCCN(CC(C)C)CC(C)C)CC1)CC3 [Compound 3.1c, N,N-diisobutyl-3-[4-(3-(8-methyl-1,3,4,5-tetrahydro-1H-pyrido[4,3-b]indol-2-yl)propyl)piperazin-1-yl]propylamine] |  | 10 | 355
4 | 3.5 | 2.5 | COc1ccc2[nH]c3c(c2c1)CN(CCCN1CCN(CCN(CC(C)C)CC(C)C)CC1)CC3 [Compound 3.1g, N,N-diisobutyl-2-(4-(3-(8-methoxy-1,3,4,5-tetrahydro-1H-pyrido[4,3-b]indol-2-yl)propyl)piperazin-1-yl)ethylamine] |  |  | 
5 | 2.5 | 2.5 | Fc1ccc2[nH]c3c(c2c1)CN(CCCN1CCN(CCCN(Cc2ccccc2)Cc2ccccc2)CC1)CC3 [Compound 3.1h, N,N-dibenzyl-3-[4-(3-(8-fluoro-1,3,4,5-tetrahydro-1H-pyrido[4,3-b]indol-2-yl)propyl)piperazin-1-yl]propylamine] |  | 4.8 | 
6 | > 10 | 10 | COc1ccc2[nH]c3c(c2c1)CN(CCCN1CCN(CCCN2CCCCC2)CC1)CC3 [Compound 3.1i, 3-(4-(3-(8-methoxy-1,3,4,5-tetrahydro-1H-pyrido[4,3-b]indol-2-yl)propyl)piperazin-1-yl)propylpiperidine] |  | > 100 | 
7 | 5 | 2 | CC(C)CN(CCCN1CCN(CCCN2CCc3c([nH]c4ccccc34)C2c2ccccc2)CC1)CC(C)C (stereo not drawn) [Compound 3.2a, N,N-diisobutyl-3-{4-[3-(1-phenyl-1,3,4,9-tetrahydro-1H-beta-carbolin-2-yl)propyl]piperazin-1-yl}propylamine] |  |  | 
8 | > 10 |  | CC(C)CN(CCCN1CCN(CCCN2CCc3c([nH]c4ccc(Cl)cc34)C2)CC1)CC(C)C [Compound 3.2b, N,N-diisobutyl-3-{4-[3-(6-chloro-1,3,4,9-tetrahydro-1H-beta-carbolin-2-yl)propyl]piperazin-1-yl}propylamine] | 7417 | > 100 | 716
9 | 5 | 5 | c1ccc2c3c([nH]c2c1)CN(CCCN1CCN(CCCN2CCCCC2)CC1)CC3 [Compound 3.2i, 1-[3-(piperidin-1-yl)propyl]-4-(3-{1H,2H,3H,4H,9H-pyrido[3,4-b]indol-2-yl}propyl)piperazine] |  | > 100 | 
10 | 3 | 5 | c1ccc2c3c([nH]c2c1)CN(CCCN1CCN(CCN2CCCCC2)CC1)CC3 [Compound 3.2j, 1-[2-(piperidin-1-yl)ethyl]-4-(3-{1H,2H,3H,4H,9H-pyrido[3,4-b]indol-2-yl}propyl)piperazine] |  | > 100 | 

Row | SMILES | IC50 [1] [µM] | IC50 [3] [µM] | AICD (10 μM) [2] [arbitrary units] | CC50 at 24 h [4] [µM] | CTFα (10 μM) [5] [arbitrary units]
11 | CC(C)CN(CCN1CCN(CCCN2CCc3c([nH]c4ccccc34)C2)CC1)CC(C)C [Compound 3.2h, N,N-diisobutyl-2-{4-[3-(1,3,4,9-tetrahydro-1H-beta-carbolin-2-yl)propyl]piperazin-1-yl}ethylamine] | 3 | 3 |  |  | 

From patent US9714245B2, “Carboline compounds usable in the treatment of neurodegenerative diseases” (ALZPROTECT, priority 2013, dated 2017)
